Assay results from ChEMBL document CHEMBL3868599, “Strategy for designing selective α-l-rhamnosidase inhibitors: Synthesis and biological evaluation of l-DMDP cyclic isothioureas” (Bioorg Med Chem, 2017).
Blank lines part the entries; values can stand above or below the molecule they belong to.

Key:
Penicillium decumbens = assay: Inhibition of Penicillium decumbens alpha-L-rhamnosidase at 1000 uM using p-nitrophenyl-glycoside as substrate by spectrophotometric method
Prunus dulcis [1] = assay: Inhibition of almond beta-glucosidase at 1000 uM using p-nitrophenyl-glycoside as substrate by spectrophotometric method
Bos taurus [2] = species on record: Bos taurus; assay: Inhibition of bovine liver beta-glucosidase at 1000 uM using p-nitrophenyl-glycoside as substrate by spectrophotometric method
Homo sapiens [3] = species on record: Homo sapiens; assay: Inhibition of human lysosomal beta-glucosidase at 1000 uM using 4-methylumbelliferyl-beta-D-glucopyranoside as substrate preincubated for 45 mins followed by substrate addition measured after 30 mins by fluorescence spectrophotometric method
Aspergillus niger [4] = assay: Inhibition of Aspergillus niger amyloglucosidase assessed as D-glucose level at 1000 uM using maltose as substrate measured after 10 to 30 mins
Oryza sativa [5] = assay: Inhibition of rice alpha-glucosidase at 1000 uM using p-nitrophenyl-glycoside as substrate by spectrophotometric method
Rattus norvegicus [6] = species on record: Rattus norvegicus; assay: Inhibition of rat intestinal maltase assessed as D-glucose level at 1000 uM using maltose as substrate measured after 10 to 30 mins
Beta-galactosidase = biological target: T1, Beta-galactosidase (Bos taurus, UniProt Q58D55); assay: Inhibition of bovine liver beta-galactosidase using p-nitrophenyl-glycoside as substrate by spectrophotometric method
T1 sequence (Q58D55 whole entry): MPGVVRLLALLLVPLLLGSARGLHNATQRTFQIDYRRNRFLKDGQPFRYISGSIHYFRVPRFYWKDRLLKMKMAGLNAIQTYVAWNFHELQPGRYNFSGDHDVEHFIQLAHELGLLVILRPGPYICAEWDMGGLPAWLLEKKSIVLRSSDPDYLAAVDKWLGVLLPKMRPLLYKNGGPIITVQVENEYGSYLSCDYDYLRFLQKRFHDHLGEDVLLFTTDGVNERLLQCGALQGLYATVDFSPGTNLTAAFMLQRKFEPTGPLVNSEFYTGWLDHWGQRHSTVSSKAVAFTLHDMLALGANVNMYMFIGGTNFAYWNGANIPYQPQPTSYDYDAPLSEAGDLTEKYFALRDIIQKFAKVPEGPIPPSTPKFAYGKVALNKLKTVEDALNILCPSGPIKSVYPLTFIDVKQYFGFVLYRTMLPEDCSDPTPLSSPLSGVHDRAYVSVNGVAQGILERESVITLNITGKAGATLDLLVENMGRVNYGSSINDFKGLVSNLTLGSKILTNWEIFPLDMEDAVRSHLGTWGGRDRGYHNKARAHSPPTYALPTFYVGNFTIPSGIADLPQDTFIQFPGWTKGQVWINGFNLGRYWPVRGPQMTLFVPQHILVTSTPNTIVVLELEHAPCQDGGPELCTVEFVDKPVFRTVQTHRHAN

[7] = biological target: T2, Tissue alpha-L-fucosidase (Bos taurus) (UniProt Q2KIM0); assay: Inhibition of bovine kidney alpha-L-fucosidase at 1000 uM using p-nitrophenyl-glycoside as substrate by spectrophotometric method
T2 sequence (whole entry): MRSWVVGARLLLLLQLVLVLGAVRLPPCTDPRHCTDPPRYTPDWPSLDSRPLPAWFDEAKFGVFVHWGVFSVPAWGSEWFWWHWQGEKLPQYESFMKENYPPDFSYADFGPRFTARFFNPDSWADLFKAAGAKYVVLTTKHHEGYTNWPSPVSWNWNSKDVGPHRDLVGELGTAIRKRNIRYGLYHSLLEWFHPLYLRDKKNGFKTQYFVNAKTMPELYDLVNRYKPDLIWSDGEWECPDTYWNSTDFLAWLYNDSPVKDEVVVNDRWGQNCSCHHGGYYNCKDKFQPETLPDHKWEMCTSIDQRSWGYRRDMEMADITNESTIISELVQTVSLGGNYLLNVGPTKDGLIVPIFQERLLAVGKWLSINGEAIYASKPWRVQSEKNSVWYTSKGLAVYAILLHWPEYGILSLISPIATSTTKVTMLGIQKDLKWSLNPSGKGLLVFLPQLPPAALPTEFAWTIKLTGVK

[8] = biological target: T3, Uncharacterized protein (Sus scrofa) (UniProt I3LIR5); assay: Inhibition of porcine kidney trehalase assessed as D-glucose level at 1000 uM using maltose as substrate measured after 10 to 30 mins
T3 sequence (whole entry): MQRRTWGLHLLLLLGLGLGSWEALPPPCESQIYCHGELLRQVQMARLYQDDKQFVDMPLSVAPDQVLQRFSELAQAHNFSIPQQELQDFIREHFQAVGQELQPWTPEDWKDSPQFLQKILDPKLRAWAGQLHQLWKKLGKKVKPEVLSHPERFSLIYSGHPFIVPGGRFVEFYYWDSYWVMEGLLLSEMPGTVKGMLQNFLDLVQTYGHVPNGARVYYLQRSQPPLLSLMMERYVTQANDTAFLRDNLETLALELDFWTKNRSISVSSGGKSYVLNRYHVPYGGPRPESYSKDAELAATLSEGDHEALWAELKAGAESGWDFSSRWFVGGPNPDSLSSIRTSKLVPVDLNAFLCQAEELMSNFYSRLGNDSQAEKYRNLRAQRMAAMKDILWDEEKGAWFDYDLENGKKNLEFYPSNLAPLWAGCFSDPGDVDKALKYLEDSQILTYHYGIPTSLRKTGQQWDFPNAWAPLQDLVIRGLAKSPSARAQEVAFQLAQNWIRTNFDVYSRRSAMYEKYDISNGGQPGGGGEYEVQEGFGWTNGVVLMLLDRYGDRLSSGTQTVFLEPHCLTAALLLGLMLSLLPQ

Escherichia coli [9] = assay: Inhibition of Escherichia coli beta-glucuronidase at 1000 uM using p-nitrophenyl-glycoside as substrate by spectrophotometric method
[10] = Inhibition of Penicillium decumbens alpha-L-rhamnosidase using p-nitrophenyl-glycoside as substrate by spectrophotometric method
Prunus dulcis [11] = assay: Inhibition of almond beta-glucosidase at 100 uM using p-nitrophenyl-glycoside as substrate by spectrophotometric method
[12] = Inhibition of bovine liver beta-glucosidase using p-nitrophenyl-glycoside as substrate by spectrophotometric method; set-up: species or system Bos taurus
Oryza sativa [13] = assay: Inhibition of rice alpha-glucosidase at 100 uM using p-nitrophenyl-glycoside as substrate by spectrophotometric method
Rattus norvegicus [14] = species on record: Rattus norvegicus; assay: Inhibition of rat intestinal maltase assessed as D-glucose level at 100 uM using maltose as substrate measured after 10 to 30 mins
Aspergillus niger [15] = assay: Inhibition of Aspergillus niger amyloglucosidase assessed as D-glucose level at 100 uM using maltose as substrate measured after 10 to 30 mins
[16] = biological target: T2, Tissue alpha-L-fucosidase (Bos taurus); assay: Inhibition of bovine kidney alpha-L-fucosidase at 100 uM using p-nitrophenyl-glycoside as substrate by spectrophotometric method
[17] = biological target: T3, Uncharacterized protein (Sus scrofa); assay: Inhibition of porcine kidney trehalase assessed as D-glucose level at 100 uM using maltose as substrate measured after 10 to 30 mins
Homo sapiens [18] = species on record: Homo sapiens; assay: Inhibition of human lysosomal beta-glucosidase at 100 uM using 4-methylumbelliferyl-beta-D-glucopyranoside as substrate preincubated for 45 mins followed by substrate addition measured after 30 mins by fluorescence spectrophotometric method
Escherichia coli [19] = assay: Inhibition of Escherichia coli beta-glucuronidase at 100 uM using p-nitrophenyl-glycoside as substrate by spectrophotometric method
Bos taurus [20] = species on record: Bos taurus; assay: Inhibition of bovine liver beta-glucosidase at 100 uM using p-nitrophenyl-glycoside as substrate by spectrophotometric method
[21] = Inhibition of Penicillium decumbens alpha-L-rhamnosidase

inhibition (Penicillium decumbens): < 50% | inhibition (Prunus dulcis [1]): < 50% | inhibition (Bos taurus [2]): < 50% | inhibition (Homo sapiens [3]): < 50% | inhibition (Aspergillus niger [4]): < 50% | inhibition (Oryza sativa [5]): < 50% | inhibition (Rattus norvegicus [6]): < 50% | IC50 (Beta-galactosidase): 1000 µM | inhibition [7]: < 50% | inhibition [8]: < 50% | inhibition (Escherichia coli [9]): < 50%
Structure (SMILES): CCCCCCNC(=S)N1[C@H](CO)[C@@H](O)[C@H](O)[C@H]1CO

IC50 [10]: 0.46 µM | inhibition (Prunus dulcis [11]): < 50% | IC50 [12]: 9.5 µM | inhibition (Oryza sativa [13]): < 50% | inhibition (Rattus norvegicus [14]): < 50% | IC50 (Beta-galactosidase): 11 µM | inhibition (Aspergillus niger [15]): < 50% | inhibition [16]: < 50% | inhibition [17]: < 50% | inhibition (Homo sapiens [18]): < 50% | inhibition (Escherichia coli [19]): < 50%
Structure (SMILES): CCCCCCCCCCCC/N=C1/SC[C@H]2[C@H](O)[C@@H](O)[C@H](CO)N12

IC50 [10]: 0.77 µM | inhibition (Prunus dulcis [11]): < 50% | inhibition (Bos taurus [20]): < 50% | inhibition (Oryza sativa [13]): < 50% | inhibition (Rattus norvegicus [14]): < 50% | IC50 (Beta-galactosidase): 36 µM | inhibition (Aspergillus niger [15]): < 50% | inhibition [16]: < 50% | inhibition [17]: < 50% | inhibition (Homo sapiens [18]): < 50% | inhibition (Escherichia coli [19]): < 50%
Structure (SMILES): CCCCCCCCCC/N=C1/SC[C@H]2[C@H](O)[C@@H](O)[C@H](CO)N12

IC50 [10]: 0.7 µM
Structure (SMILES): OC[C@H]1[C@H](O)[C@@H](O)[C@@H]2CS/C(=N/Cc3cc(Cl)cc(Cl)c3)N12

IC50 [10]: 0.8 µM
Structure (SMILES): OC[C@H]1[C@H](O)[C@@H](O)[C@@H]2CS/C(=N/Cc3ccc(Cl)cc3Cl)N12

inhibition (Penicillium decumbens): < 50% | inhibition (Prunus dulcis [1]): < 50% | inhibition (Bos taurus [2]): < 50% | inhibition (Homo sapiens [3]): < 50% | inhibition (Aspergillus niger [4]): < 50% | inhibition (Oryza sativa [5]): < 50% | inhibition (Rattus norvegicus [6]): < 50% | IC50 (Beta-galactosidase): 572 µM | inhibition [7]: < 50% | inhibition [8]: < 50% | inhibition (Escherichia coli [9]): < 50%
Structure (SMILES): CCCCCCNC(=S)N1[C@@H](CO)[C@H](O)[C@@H](O)[C@@H]1CO

IC50 [21]: 850 µM
Structure (SMILES): C[C@H]1N[C@@H](CO)[C@H](O)[C@H](O)[C@H]1O

The remaining lines, values behind:

Structure (SMILES): COc1ccc(C[C@@H]2NC[C@H](O)[C@H]2O)cc1
IC50 [21]: 3.7 µM

Structure (SMILES): OC[C@H](O)[C@@H]1NC[C@H](O)[C@@H]1O
IC50 [21]: 52.8 µM

Structure (SMILES): COc1ccc(C/N=C2/SC[C@H]3[C@H](O)[C@@H](O)[C@H](CO)N23)cc1
IC50 [10]: 1.6 µM

Structure (SMILES): OC[C@H]1[C@H](O)[C@@H](O)[C@@H]2CS/C(=N/Cc3ccc(Cl)cc3)N12
IC50 [10]: 0.89 µM

Structure (SMILES): OC[C@@H]1[C@H](O)[C@@H](O)[C@@H]2CCCCN12
IC50 [21]: 3.3 µM

Structure (SMILES): OC[C@H]1[C@H](O)[C@@H](O)[C@@H]2CS/C(=N/Cc3ccc(F)cc3)N12
IC50 [10]: 1.8 µM
